Consider three substances from patent US6923921B2, “Fluorinated polyether compositions” (3M Innovative Properties Company, priority 2002, dated 2005).

The nature of the data set: Toxicokinetic study with HFPO alcohols: oral absorption and serum elimination (total fluorine in serum). On the set-up: species or system Male Sprague-Dawley rats. As to conditions: rat, in vivo, 30 mg/kg. As to the method: The objective of this study was to assess the oral absorption and serum elimination half-life of six hexafluoropropylene oxide (HFPO)-alcohol oligomers (CF3CF2CF2O(CF(CF3)CF2O)xCF(CF3)C(O)N(H)CH2CH2OH), or mixtures thereof, in rats. Male Sprague-Dawley rats (N=4 to 6 rats per dose group) received a single 30 mg/kg dose of the various HFPO alcohol oligomers in propylene glycol by oral gavage at a volume of 5 ml/kg. Necropsies were performed on day one and day four post dose.
Serum samples obtained at necropsy were analyzed for total fluorine based on published methods (1) using an Antek 9000F Fluoride Analysis System. The method was based on oxy-pyrohydrolysis at 1050° C., whereby the C—F bond is broken and the resulting product, hydrogen fluoride (HF), is trapped in a buffer solution and measured with the fluoride ion electrode. The total fluorine levels obtained by this method reflect the total organic fluorine in the serum samples and are reported in Table 2.

In the case of “CF3CF2CF2O(CF(CF3)CF2O)xCF(CF3)C(O)N(H)CH2CH2OH [Example 2]”, the “Amount of Total F ppm (SD) in serum, Day 1 Post-Dose” value is 0.15 (0.00) ppm and the “Amount of Total F ppm (SD) in serum, Day 4 Post-Dose” value was 0.15 (0.00) ppm.
For the substance “CF3CF2CF2O(CF(CF3)CF2O)xCF(CF3)C(O)N(H)CH2CH2OH [Example 3]”, the “Amount of Total F ppm (SD) in serum, Day 1 Post-Dose” value is given as 0.15 (0.00) ppm and the “Amount of Total F ppm (SD) in serum, Day 4 Post-Dose” value is 0.15 (0.00) ppm.
With “CF3CF2CF2O(CF(CF3)CF2O)xCF(CF3)C(O)N(H)CH2CH2OH [Example C1]”, the “Amount of Total F ppm (SD) in serum, Day 1 Post-Dose” value is listed as 7.55 (1.34) ppm; the “Amount of Total F ppm (SD) in serum, Day 4 Post-Dose” value is on record as 3.90 (0.00) ppm; the “apparent half-life serum fluorine levels” value was “approximately four”.
